# Test results published in ChEMBL document CHEMBL3507680, “University of Dundee, Gates Library screen for HepG2 cell viability”.
# Test: Human HepG2 cell viability assay in 384 well format
# Assay type: toxicity, cell-based
# Set-up: dose 125 nL, time 70.5 hour; cytotoxicity at 70.5 h: concentration not given beside the values
# Conditions: HepG2 cells, read-out: Inhibition
row,Compound,cytotoxicity at 70.5 h
1,O=C(c1cccs1)N1CCN(C(=O)c2ncoc2-c2ccco2)CC1,5.95%
2,CC(Oc1ccccc1C#N)C(=O)NC1CC1 (stereo not drawn),-8.65%
3,CN(Cc1c(F)cccc1Cl)C(=O)CN(C)C1CCc2ccccc21 (stereo not drawn),-5.53%
4,Cc1ccsc1CNC(=O)c1ccc(N2CCNC2=O)cc1,-10.8%
5,CCc1ccc(CNC(=O)c2ccc(N3CCOC3=O)cc2)s1,20.2%
6,CC(NC(=O)NCCc1cnn(C)c1)c1ccc(Cl)s1 (stereo not drawn),-15%
7,N#Cc1ccc(CN(CC(N)=O)C2CCCC2)cc1,-9.26%
8,Cc1ccc(-c2nc(CN(C)C3CCS(=O)(=O)C3)cs2)o1 (stereo not drawn),-8.59%
9,COc1ccc(N2CCCN(CC(=O)N3CCNC(=O)C3)CC2)cc1,-8.51%
10,N#Cc1cccnc1N1CCCN(CC(=O)N2CCNC(=O)C2)CC1,-5.07%
11,CCc1nc(CN2CCCC(Nc3ncnc4ccsc34)C2)no1 (stereo not drawn),-8.27%
12,N#Cc1ccccc1CN(CC(N)=O)C1CCCC1,-7.95%
13,Cc1nc(CN2CCCC(Nc3ncnc4ccsc34)C2)no1 (stereo not drawn),-9.16%
14,O=C(CCC(=O)c1cccs1)NC1(C(=O)NCC2CC2)CCCC1,-1.16%
15,O=C1C(Nc2ccc3nccnc3n2)CCN1c1ccccc1F (stereo not drawn),-9.82%
16,O=C1C(Nc2ccc3nccnc3n2)CCN1c1ccccc1 (stereo not drawn),-6.11%
17,C=C(C)COCCNC(=O)Nc1cccc(Cn2nc(C)nc2C)c1,19.9%
18,O=C1CC(Nc2ccc3nccnc3n2)CN1c1ccccc1 (stereo not drawn),-2.9%
19,Cc1noc(-c2cccnc2N(C)Cc2cc(C)on2)n1,-7.15%
20,Cc1csc(C2(NCc3nnc(-c4ccco4)o3)CCCC2)n1,0.188%

row,Compound,cytotoxicity at 70.5 h
1,CCn1c(CN(C)CC(F)(F)F)nc2c(F)cccc21,-0.949%
2,Cc1nccn1C1CCCN(C(=O)Cn2ccc(=O)n(C)c2=O)C1 (stereo not drawn),-14.6%
3,CC(NCCCc1cnn(C)c1)c1ccc(Cl)s1 (stereo not drawn),2.71%
4,CO[C@H]1CO[C@@]2(CCCN(C(=O)N3CCCC3)C2)C1,1.63%
5,Cn1cccc1C(=O)N1CCO[C@@H]2CN(Cc3ccco3)C[C@@H]2C1,-5.04%
6,CNC(=O)NCC1CCC2(CCN(c3ncccn3)CC2)CO1 (stereo not drawn),-3.53%
7,CCOCC(=O)N1CCc2nc(C)nc(NC(C)C)c2CC1,16%
8,CCS(=O)(=O)N1C[C@@H](c2ccccc2)[C@@]2(CCNC2=O)C1,-4.06%
9,O=C(c1ccoc1)N1CCC2(CCCN(c3ncc(F)cn3)C2)C1 (stereo not drawn),-1.48%
10,CCN1CCO[C@@H]2CN(C(=O)NCc3ccccc3)CC[C@@H]2C1,-4.68%
11,COC[C@@]12CCC[C@@H]1CN(C(=O)COc1ccccc1OC)C2,-3.63%
12,NC(=O)C1Cn2ccnc2C2(CCN(C(=O)c3ccncc3)CC2)O1 (stereo not drawn),-4.78%
13,O=C([C@@H]1CCCO1)N1CCN(Cc2ccncc2)c2ncccc2C1,-0.675%
14,CN(C)Cc1nc2c(o1)CN(C(=O)c1ccncc1F)C2,-8.38%
15,CNC(=O)[C@H]1C[C@@H]2CN(C(=O)c3ccc(C)nc3)C[C@@H]2N1C,-15.1%
16,CNC(=O)[C@H]1C[C@@H]2CN(C(=O)c3cncc(C)c3)C[C@@H]2N1C,-16.6%
17,CC(=O)N1CCCCCC1C1CCN(Cc2nnc(C(C)(C)C)o2)CC1 (stereo not drawn),-5.64%
18,Cc1nccc(NCc2cncc3c2CCN(CC2CCOC2)C3)n1 (stereo not drawn),5.73%
19,CC(C)N(C)Cc1cncc2c1CCN(Cc1ccoc1)C2,-1.23%
20,CN(C)Cc1cncc2c1CCN(Cc1ccoc1)C2,-4.55%

row,Compound,cytotoxicity at 70.5 h
1,CCN1CCc2c(CNC(=O)c3nccn3C)cncc2C1,-10.7%
2,Cc1noc(C)c1CN1CCc2ncnc(-c3ccc(F)cc3)c2CC1,2.47%
3,CNC(=O)NCC1CCC2(CCN(C(=O)c3cccnc3)CC2)CO1 (stereo not drawn),3.36%
4,Cc1noc(C)c1CN1CCC2(CC1)C(c1ccccc1)CC(=O)N2C (stereo not drawn),-1.86%
5,CS(=O)(=O)N1CCC2(CC1)CN(CC1CCOC1)c1ccccc12 (stereo not drawn),5.41%
6,O=C(c1ccsc1)N1CCO[C@@H]2CN(Cc3ccco3)CC[C@@H]2C1,0.973%
7,O=C(Cc1cccc(F)c1)N1CCc2ncnc(NC3CC3)c2CC1,1.87%
8,CN1CCO[C@@H]2CN(C(=O)NCc3ccccc3)CC[C@@H]2C1,9.51%
9,CCn1ncc2c1C(COC)N(C(=O)c1cscn1)CC2 (stereo not drawn),6.98%
10,O=C(COC[C@@]12CCC[C@@H]1CN(C1CCCC1)C2)N1CCCC1,-1.08%
11,CCn1ncc2c1C(COC)N(C(=O)c1cccs1)CC2 (stereo not drawn),0.803%
12,CCn1ncc2c1C(COC)N(C(=O)c1ccsc1)CC2 (stereo not drawn),-6.73%
13,CCN1C[C@H]2C3(CCN(S(C)(=O)=O)CC3)CC[C@@]2(C(=O)N(C)C)C1,-9.68%
14,CCN1C[C@H]2C3(CCN(C(=O)NC(C)C)CC3)CC[C@@]2(C(=O)N(C)C)C1,-8.21%
15,O=C(NCc1ccccn1)[C@@]12CCO[C@@H]1CCN(C1CCCC1)C2,-1.56%
16,Fc1cccc(CN2CCOC3(COCCN(CC4CC4)C3)C2)c1 (stereo not drawn),-8.93%
17,O=C(c1ccncc1F)N1Cc2nc(CN3CCCCC3)oc2C1,-8.64%
18,CN1[C@H](Cn2cncn2)C[C@@H]2CN(Cc3ccsc3)CC[C@@H]21,-3.81%
